Reference: US20260258048A1, “LACTAM-CONTAINING IMIDAZOPYRIDAZINE IL-17 INHIBITOR COMPOUNDS” (Janssen Pharmaceutica NV, priority 2023, published 2026)

Assays:
[1] = test system: IL-17A-induced G-CSF production in human normal keratinocyte (NHK); assay: NHK assay: IL-17A-induced G-CSF production in normal human keratinocytes; assay type: cell-based; settings: 24 h, IL-17A 5 ng/mL, class of the average IC50 where tested more than once
Procedure, shortened: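 Adult keratinocytes at 3000-4000 cells/well; recombinant human IL-17A pre-incubated 1 h at rt with titrated compound, then added to cells (final 5 ng/mL IL-17A, 0.2% DMSO, 5% FBS) for 24 h at 37 °C. Supernatant G-CSF quantified by HTRF against a standard curve to give IC50; viability checked by CellTiter-Glo versus DMSO.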

[2] = molecular target: IL-17A(FLAG-tagged): IL-17RA(His-tagged) (Homo sapiens, UniProt Q16552, K93Q); assay: IL-17A(FLAG-tagged): IL-17RA(His-tagged) binding disruption Eu-HTRF assay; settings: class of the average IC50 where tested more than once
Text: IL-17A(FLAG-tagged): IL-17RA(His-tagged) binding disruption Eu-HTRF assay An antibody directed against the FLAG tag of IL-17A (SEQ ID NO: 1) is labeled with the HTRF donor chromophore (Europium-cryptate). IL-17A is present as a dimer that is “locked into” this quaternary structure due to the formation of loop-spanning intramolecular disulfide bridges. The construct of IL-17RA used in the assay excludes the […] portion of the receptor and is fused to a C-terminal 10×His tag (SEQ ID NO:2). An antibody directed against the His tag of the IL-17RA chimera is labeled with the HTRF acceptor chromophore (“D2”). The fluorescence-resonance energy transfer (FRET) depends on the vicinity of the donor chromophore to the acceptor, and interruption of the binding between the IL-17A and IL-17RA causes the reduction/loss of FRET. Therefore, this assay allows to evaluate the compound effect on the binding IL-17A and IL-17RA by monitoring the fluorescence intensity of donor vs acceptor. The assay is run as described below.
40 nl of 2-fold serial diluted compound solution for total 22 dilution points is added into each well of a 1536-well, white, low-volume, non-binding plate (Greiner #782904), then 2 μl of FLAG tagged IL-17A at 2× final concentration (1 μM) in solution of PBS+0.01% Triton-X100 is added to each well. The assay plate is briefly centrifuged then incubated for 1 h at rt. A mixed solution is prepared containing 2×5 nM 10HIS×IL-17RA, 2×2.5 nM Eu-anti-FLAG (CISBIO), 2×5 nM D2-anti-HIS (CISBIO) in PBS+0.01% Triton-X100+200 mM Potassium Fluoride (Sigma 60238) and 2 μl of mix is added to each well of the assay plate. The plate is briefly centrifuged then incubated for 2 h at rt. The HTRF intensities at the wavelength of donor (615 nm) and acceptor (665 nm) are measured using BMG Pherastar. The ratio between intensities at two wavelengths is calculated and plotted against the compound concentration and the data is fitted to a one-site competition model to yield IC50 of the compound.

UniProt Q16552, sequence (Q16552 with tags, fused parts or gaps K93Q): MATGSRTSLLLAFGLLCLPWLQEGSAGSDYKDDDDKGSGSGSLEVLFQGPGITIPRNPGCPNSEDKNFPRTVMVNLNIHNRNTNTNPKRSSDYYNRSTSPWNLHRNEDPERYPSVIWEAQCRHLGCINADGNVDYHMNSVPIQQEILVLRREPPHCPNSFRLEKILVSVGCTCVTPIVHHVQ

IC50 [2] [µM]	SMILES	IC50 ([1]; Homo sapiens, Keratinocyte) [µM]	IC50 [1] [µM]
< 0.4	C[C@H]1C[C@H](Cc2cnn3cc([C@@H](NC(=O)c4nonc4C4CC4)C4CCC(F)(F)CC4)nc3c2)C(=O)N1 (relative stereo) [Example 83, 4-Cyclopropyl-N—((S)-(4,4-difluorocyclohexyl)(7-(((3S*,5S*)-5-methyl-2-oxopyrrolidin-3-yl)methyl)imidazo[1,2-b]pyridazin-2-yl)methyl)-1,2,5-oxadiazole-3-carboxamide]	< 0.4	–
0.4 to 4	C[C@@H]1C[C@H](Cc2cnn3cc([C@@H](NC(=O)c4nonc4C4CC4)C4CCC(F)(F)CC4)nc3c2)C(=O)N1 (relative stereo) [Example 85, 4-Cyclopropyl-N—((S)-(4,4-difluorocyclohexyl(7-(((3S*,5R*)-5-methyl-2-oxopyrrolidin-3-yl)methyl)imidazo[1,2-b]pyridazin-2-yl)methyl)-1,2,5-oxadiazole-3-carboxamide]	> 4	–
0.4 to 4	C[C@H]1CNC(=O)[C@H]1Cc1cnn2cc([C@@H](NC(=O)c3nonc3C3CC3)C3CCC(F)(F)CC3)nc2c1 (relative stereo) [Example 86, 4-Cyclopropyl-N—[(S)-(4,4-difluorocyclohexyl)-[7-[[(3S*,4R*)-4-methyl-2-oxo-pyrrolidin-3-yl]methyl]imidazo[1,2-b]pyridazin-2-yl]methyl]-1,2,5-oxadiazole-3-carboxamide]	> 4	–
0.4 to 4	C[C@@H]1CNC(=O)[C@@H]1Cc1cnn2cc([C@@H](NC(=O)c3nonc3C3CC3)C3CCC(F)(F)CC3)nc2c1 (relative stereo) [Example 88, 4-Cyclopropyl-N—[(S)-(4,4-difluorocyclohexyl)-[7-[[(3R*,4S*)-4-methyl-2-oxo-pyrrolidin-3-yl]methyl]imidazo[1,2-b]pyridazin-2-yl]methyl]-1,2,5-oxadiazole-3-carboxamide]	> 4	–
< 0.4	CC[C@@H]1C[C@H](Cc2cnn3cc([C@@H](NC(=O)c4nonc4C4CC4)C4CCC(F)(F)CC4)nc3c2)C(=O)N1 (relative stereo) [Example 89, 4-Cyclopropyl-N—[(S)-(4,4-difluorocyclohexyl)-[7-[[(3S*,5R*)-5-ethyl-2-oxo-pyrrolidin-3-yl]methyl]imidazo[1,2-b]pyridazin-2-yl]methyl]-1,2,5-oxadiazole-3-carboxamide]	> 4	–
0.4 to 4	CC(C)[C@H]1C[C@H](Cc2cnn3cc([C@@H](NC(=O)c4nonc4C4CC4)C4CCC(F)(F)CC4)nc3c2)C(=O)N1 (relative stereo) [Example 93, 4-Cyclopropyl-N—[(S)-(4,4-difluorocyclohexyl)-[7-[[(3S*,5R*)-5-isopropyl-2-oxo-pyrrolidin-3-yl]methyl]imidazo[1,2-b]pyridazin-2-yl]methyl]-1,2,5-oxadiazole-3-carboxamide]	0.4 to 4	–
< 0.4	CC(C)[C@H]1C[C@@H](Cc2cnn3cc([C@@H](NC(=O)c4nonc4C4CC4)C4CCC(F)(F)CC4)nc3c2)C(=O)N1 (relative stereo) [Example 94, 4-Cyclopropyl-N—[(S)-(4,4-difluorocyclohexyl)-[7-[[(3R*,5R*)-5-isopropyl-2-oxo-pyrrolidin-3-yl]methyl]imidazo[1,2-b]pyridazin-2-yl]methyl]-1,2,5-oxadiazole-3-carboxamide]	< 0.4	–
0.4 to 4	CC(C)[C@@H]1C[C@@H](Cc2cnn3cc([C@@H](NC(=O)c4nonc4C4CC4)C4CCC(F)(F)CC4)nc3c2)C(=O)N1 (relative stereo) [Example 95, 4-Cyclopropyl-N—[(S)-(4,4-difluorocyclohexyl)-[7-[[(3R*,5S*)-5-isopropyl-2-oxo-pyrrolidin-3-yl]methyl]imidazo[1,2-b]pyridazin-2-yl]methyl]-1,2,5-oxadiazole-3-carboxamide]	> 4	–
> 4	CC(C)[C@@H]1C[C@H](Cc2cnn3cc([C@@H](NC(=O)c4nonc4C4CC4)C4CCC(F)(F)CC4)nc3c2)C(=O)N1 (relative stereo) [Example 96, 4-Cyclopropyl-N—[(S)-(4,4-difluorocyclohexyl)-[7-[[(3S*,5S*)-5-isopropyl-2-oxo-pyrrolidin-3-yl]methyl]imidazo[1,2-b]pyridazin-2-yl]methyl]-1,2,5-oxadiazole-3-carboxamide]	> 4	–
0.4 to 4	O=C(N[C@H](c1cn2ncc(C[C@@H]3C(=O)NC[C@H]3C(F)(F)F)cc2n1)C1CCC(F)(F)CC1)c1nonc1C1CC1 (relative stereo) [Example 100, 4-Cyclopropyl-N—[(S)-(4,4-difluorocyclohexyl)-[7-[[(3S*,4S*)-2-oxo-4-(trifluoromethyl)pyrrolidin-3-yl]methyl]imidazo[1,2-b]pyridazin-2-yl]methyl]-1,2,5-oxadiazole-3-carboxamide]	> 4	–
0.4 to 4	O=C(N[C@H](c1cn2ncc(C[C@H]3C(=O)NC[C@@H]3C(F)(F)F)cc2n1)C1CCC(F)(F)CC1)c1nonc1C1CC1 (relative stereo) [Example 101, 4-Cyclopropyl-N—[(S)-(4,4-difluorocyclohexyl)-[7-[[(3R*,4R*)-2-oxo-4-(trifluoromethyl)pyrrolidin-3-yl]methyl]imidazo[1,2-b]pyridazin-2-yl]methyl]-1,2,5-oxadiazole-3-carboxamide]	0.4 to 4	–
< 0.4	O=C(N[C@H](c1cn2ncc(CC3CC(F)(F)CNC3=O)cc2n1)C1CCC(F)(F)CC1)c1nonc1C1CC1 (single isomer, unassigned) [Example 1, 4-Cyclopropyl-N—((S)-(7-(((R*)-5,5-difluoro-2-oxopiperidin-3-yl)methyl)imidazo[1,2-b]pyridazin-2-yl)(4,4-difluorocyclohexyl)methyl)-1,2,5-oxadiazole-3-carboxamide]	–	< 0.4
0.4 to 4	O=C(N[C@H](c1cn2ncc(CC3CC(F)(F)CNC3=O)cc2n1)C1CCC(F)(F)CC1)c1nonc1C1CC1 (single isomer, unassigned) [Example 2, 4-Cyclopropyl-N—((S)-(7-(((S*)-5,5-difluoro-2-oxopiperidin-3-yl)methyl)imidazo[1,2-b]pyridazin-2-yl)(4,4-difluorocyclohexyl)methyl)-1,2,5-oxadiazole-3-carboxamide]	–	> 4
> 4	COc1nonc1C(=O)N[C@@H](CCC(C)(C)C(F)(F)F)c1cn2ncc(CC3C[C@@H](C(F)(F)F)NC3=O)cc2n1 (single isomer, unassigned) [Example 5, 4-Methoxy-N-[(1S)-5,5,5-trifluoro-4,4-dimethyl-1-[7-[[(3R*,5S)-2-oxo-5-(trifluoromethyl)pyrrolidin-3-yl]methyl]imidazo[1,2-b]pyridazin-2-yl]pentyl]-1,2,5-oxadiazole-3-carboxamide]	–	> 4
< 0.4	COc1nonc1C(=O)N[C@@H](CCC(C)(C)C(F)(F)F)c1cn2ncc(CC3C[C@@H](C(F)(F)F)NC3=O)cc2n1 (single isomer, unassigned) [Example 6, 4-Methoxy-N-[(1S)-5,5,5-trifluoro-4,4-dimethyl-1-[7-[[(3S*,5S)-2-oxo-5-(trifluoromethyl)pyrrolidin-3-yl]methyl]imidazo[1,2-b]pyridazin-2-yl]pentyl]-1,2,5-oxadiazole-3-carboxamide]	–	< 0.4
< 0.4	COc1nonc1C(=O)N[C@H](c1cn2ncc(CC3C[C@@H](C(F)(F)F)NC3=O)cc2n1)C1CCC(F)(F)CC1 (single isomer, unassigned) [Example 7, N—[(S)-(4,4-Difluorocyclohexyl)-[7-[[(3R*,5S)-2-oxo-5-(trifluoromethyl)pyrrolidin-3-yl]methyl]imidazo[1,2-b]pyridazin-2-yl]methyl]-4-methoxy-1,2,5-oxadiazole-3-carboxamide]	–	< 0.4
> 4	COc1nonc1C(=O)N[C@H](c1cn2ncc(CC3C[C@@H](C(F)(F)F)NC3=O)cc2n1)C1CCC(F)(F)CC1 (single isomer, unassigned) [Example 8, N—((S)-(4,4-Difluorocyclohexyl)(7-(((3S*,5S)-2-oxo-5-(trifluoromethyl)pyrrolidin-3-yl)methyl)imidazo[1,2-b]pyridazin-2-yl)methyl)-4-methoxy-1,2,5-oxadiazole-3-carboxamide]	–	> 4
